Measured values from the NIST ThermoML archive (doi:10.1016/j.fluid.2019.05.020).
Numbers after ± are expanded uncertainties.

Assays:
[1] = for Normal melting temperature: Crystal, DTA
[2] = Molar enthalpy of transition or fusion; conditions: Crystal; DSC

With `CCCCCCCCCCCCCCCC(=O)O` [hexadecanoic acid] the Normal melting temperature [1] was 64.02 ± 0.55 °C and the “Molar enthalpy of transition or fusion” value [2] was 11.7 ± 0.645 kcal/mol.
For `CCCCCCCCCCO` [decan-1-ol], the Triple point temperature ([1]; Crystal 2, DSC) was 275.64 ± 4.1 K, the Normal melting temperature [1] was 6.69 ± 0.55 °C and the “Molar enthalpy of transition or fusion” value [2] was 7.06 ± 0.932 kcal/mol.
In the case of `CCCCCCCCCCCC(=O)O` [dodecanoic acid], the Normal melting temperature [1] is reported as 45.4 ± 0.65 °C and the “Molar enthalpy of transition or fusion” value [2] is reported as 7.99 ± 0.621 kcal/mol.
With `CCCCCCCCCCCCCCCC(=O)OCC(COC(=O)CCCCCCCCCCCCCCC)OC(=O)CCCCCCCCCCCCCCC` [1,2,3-propanetriyl tri(hexadecanoate)] the Normal melting temperature [1] was 66.29 ± 0.65 °C and the “Molar enthalpy of transition or fusion” value [2] was 38.3 ± 2.1 kcal/mol.
In the case of `CCCCCCCCCC(=O)O` [decanoic acid], the Normal melting temperature [1] is reported as 32.07 ± 0.49 °C and the “Molar enthalpy of transition or fusion” value [2] is reported as 6.25 ± 0.287 kcal/mol.
With `CCCCCCCCCCCCCCCCCC(=O)O` [octadecanoic acid] the Normal melting temperature [1] was 70.48 ± 0.49 °C and the “Molar enthalpy of transition or fusion” value [2] was 13.4 ± 1.12 kcal/mol.
In the case of `CCCCCCCCCCCCO` [dodecan-1-ol], the Normal melting temperature [1] is reported as 24.63 ± 0.39 °C and the “Molar enthalpy of transition or fusion” value [2] is reported as 7.53 ± 2.13 kcal/mol.
With `CCCCCCCCCCCCCCO` [1-tetradecanol] the Normal melting temperature [1] was 37.56 ± 0.91 °C and the “Molar enthalpy of transition or fusion” value [2] was 10.4 ± 1.24 kcal/mol.
For `CCCCCCCCCCCCCC(=O)O` [tetradecanoic acid], the Normal melting temperature [1] was 55.90 ± 0.73 °C and the “Molar enthalpy of transition or fusion” value [2] was 9.92 ± 1.63 kcal/mol.
